{"source": "patent US7851641B2", "about": "“Compounds useful for treating neurodegenerative disorders” (Satori Pharmaceuticals, Inc., priority 2005, dated 2010)", "key": {"amyloid-β (1-42) peptide [1]": {"test_system": "amyloid-β (1-42) peptide", "experiment": "IP-MS quantification of amyloid-β peptides (Wang et al protocol)", "format": "cell-based", "conditions": "in vitro, FIG. 21", "experimental": "(§1) Compounds of the present invention were assayed to determine their effect on the total ration of amyloid-β (1-42) peptide in vitro using an assay protocol substantially similar to that described by Wang et al, J. Biol. Chem. 1996, 50:31894-31902, The Profile of Soluble Amyloid β Protein in Cultured Cell Media, the entirety of which is hereby incorporated herein by reference. This assay quantifies amyloid-β protein using immunoprecipitation and mass spectrometry (IP-MS)."}, "amyloid-β (1-42) peptide [2]": {"test_system": "amyloid-β (1-42) peptide", "experiment": "IP-MS quantification of amyloid-β peptides in 7W cells (APPwt) and 7PA2 cells (APPV717F)", "format": "cell-based", "conditions": "FIG. 22", "experimental": "as §1\nCompound 6 was also assayed according to the method described in Wang et al, in 7W cells (APPwt) and 7PA2 cells (APPV717F). The APP717 mutations increase the relative amount of amyloid-β (1-42) peptide. In this assay, it was shown that compound 6 reduces amyloid-β (1-42) peptide while increasing amyloid-β (1-39) peptide."}}}
{"compound": "CC(=O)O[C@@H]([C@H]1C[C@@H](C)C2=C(O1)[C@H](O)[C@@]1(C)[C@@H]3CC[C@H]4C(C)(C)[C@@H](O[C@@H]5OC[C@@H](O)[C@H](O)[C@H]5O)CC[C@@]45C[C@@]35CC[C@]21C)C(C)(C)O", "note": "[Compound 6, 24-O-Acetylhydroshengmanol 3-β-D-xylopyranoside (delta-16,17)-enol ether]", "values": [{"measurement": "effect on amyloid-β (1-37) peptide", "setting": "amyloid-β (1-42) peptide [1]", "result": "increasing"}, {"measurement": "effect on amyloid-β (1-39) peptide", "setting": "amyloid-β (1-42) peptide [1]", "result": "increasing"}, {"measurement": "effect on amyloid-β (1-42) peptide", "setting": "amyloid-β (1-42) peptide [1]", "result": "reduced"}, {"measurement": "effect on amyloid-β (1-39) peptide", "setting": "amyloid-β (1-42) peptide [2]", "result": "increasing"}, {"measurement": "effect on amyloid-β (1-42) peptide", "setting": "amyloid-β (1-42) peptide [2]", "result": "reduces"}]}
